Measurements: patent publication US5554620A, “Substituted 6,11-ethano-6,11-dihydrobenzo[b] quinolizinium salts and compositions and methods of use thereof” (Sterling Winthrop Inc., priority 1994, dated 1996)

Key:
[1] = target: PCP receptor; assay: [3H]TCP radioreceptor assay (binding to PCP recognition sites); design: species or system rat (male Sprague-Dawley, whole brain); conditions: for Ki: [3H]TCP approx. 1 nM, rat brain membranes, mean of at least two determinations
How it was run: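 Rat whole-brain membranes (Tris-HCl, pH 7.7), 0.5 mg protein/tube, incubated with ~1 nM [3H]TCP for 25 min at room temperature; non-specific binding defined with 100 μM PCP. Bound ligand collected by filtration and counted by scintillation; Ki from at least two determinations, or % inhibition at 10 μM.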

[2] = test system: cultured cortical neurons; assay: Antagonism of NMDA-induced neurotoxicity in cultured cortical neurons (LDH release); format: cell-based, mouse (Swiss-Webster); conditions: 500 μM NMDA, 30 min exposure, LDH 24 h later
Experimental: Antagonism of NMDA-induced Neurotoxicity in Cultured Neurons
Preparation of Cultured Cortical Neurons
Pregnant, Swiss-Webster mice were obtained from Taconic Farms (Germantown, New York) and sacrificed 16 days post conception. Fetuses were removed and placed in a sterile dish containing Hank's balanced salt solution (HBSS), pH 7.4. Brain cortices were dissected, meninges were removed, the tissue was minced and placed into a solution of HBSS containing 0.25% (w/v) trypsin at 37° C. for 15 minutes. Tissue was then triturated with a sterile pasteur pipet, diluted with minimal essential media (Gibco 330-1430), pH 7.4, supplemented with 10% horse serum, 10% fetal calf serum, 2 mM 1-glutamine, 21 mM d-glucose, 2.2 g/L sodium bicarbonate, 1000 U/mL penicillin, and 1,000 μg/mL streptomycin. Cells were plated onto Falcon primaria 96 well plates at a final density of 50,000 cells/well and incubated at 37 °C in the presence of 5% (v/v) carbon dioxide. After 5 days, plating media was replaced with maintenance media containing minimal essential media (Gibco 330-1430), pH 7.4, supplemented with 10% horse serum, […], 21 mM d-glucose, 2.2 g/L sodium bicarbonate, 1,000 U/mL penicillin, 1,000 μg/mL streptomycin, and 10 μM cytosine arabinoside. On days 7 and 10, media was replaced with maintenance media as above lacking the cytosine arabinoside. Experiments were conducted on day 13.
Neuroprotection Assessment
Day 13 cultured cortical neurons were washed twice with minimal essential media, pH 7.4 and then exposed for 30 minutes to 500 μM N-methyl-D-aspartic acid (NMDA) with or without varying concentrations of test agents. […] MK-801 and test agents were prepared in minimal essential media supplemented with 21 mM d-glucose and 2.2 g/L sodium bicarbonate (MEM). After 30 minutes, media was replaced with MEM alone. Exposure of neurons to test agents was limited to the NMDA treatment period. Twenty-four hours after removal of NMDA, an aliquot of media from each well was removed for assessment of cell injury by determining lactate dehydrogenase (LDH) activity by the method of Wroblewski and LaDue Proc. Soc. Exp. Biol. Med. 1955, 90, 210-213. The results are expressed as an IC50 (in nM) value (concentration causing 50% inhibition) for the antagonism of NMDA--inducedneurotoxicity. Table 3 summarizes the results obtained from the testing of representative compounds of the invention in the [^3 H]TCP radioreceptor assay as well as in the antagonism of NMDA-induced neurotoxicity in cultured neurons.

[3] = test system: rat ischemia model; assay: Middle cerebral artery occlusion (MCAo) model with reperfusion; format: in vivo, rat (male Long Evans hooded and male Sprague-Dawley); conditions: 0.1 mg test compound/kg/min, i.v. infusion started 30 min before occlusion
Experimental: Middle Cerebral Artery Occlusion (MCAo) Model with Reperfusion
A 3-vessel rat ischemia model similar to those that have been extensively described in the literature (e.g. Stroke 17, 738-743 (1986), Stroke 20, 513-518 (1989)) was utilized. Under isoflurane anesthesia the right middle cerebral artery (via an approach through the temporalis muscle) and both common carotid arteries were reversibly occluded for varying durations between 60 minutes and 120 minutes. Both male Long Evans hooded rats and male Sprague-Dawley rats weighing between 300 and 420 grams were used. The animals' temperature was maintained throughout the study with heat lamps. A femoral vein and the ipsilateral femoral artery were cannulated for intravenous infusion and arterial blood pressure measurements and blood samples. Infusions of the test compounds were initiated 30 minutes prior to occlusion at a rate of 40 microliters per minute. After reinitiation of blood flow the animals were allowed to regain consciousness. Six hours post-initiation of ischemia the animals were sacrificed and the extent of neuronal damage was quantified with TTC staining. The results are expressed as a percent inhibition (±SEM) of infarct and penumbra region.

Work on `CC1C2c3ccccc3C(c3cccc[n+]32)C1(c1ccoc1)c1ccoc1` (single isomer, unassigned) [181(c), 6,11-ethano-12,12-di(3-furyl)-13-methyl-6,11-dihydrobenzo[b]quinolizinium hexafluorophosphate] yielded a Ki [1] of 6.36 nM and an IC50 [2] of 11.4 nM.

With `CC1C2c3ccccc3C(c3cccc[n+]32)C1(c1ccoc1)c1ccoc1` (single isomer, unassigned) [181(d), 6,11-ethano-12,12-di(3-furyl)-13-methyl-6,11-dihydrobenzo[b]quinolizinium hexafluorophosphate] the Ki [1] was 6.15 nM and the IC50 [2] was 55 nM.

`[O-][Cl+3]([O-])([O-])[O-].c1ccc2c(c1)C1CC(c3ccoc3)(c3ccn[nH]3)C2c2cccc[n+]21` (single isomer, unassigned) [185(a), 6,11-ethano-12-(3-furyl)-12-(5-pyrazolyl]-6,11-dihydrobenzo[b]quinolizinium perchlorate] was tested, and the Ki [1] was 4.55 nM and the IC50 ([2]; Mus musculus, Cortical neurone) was 32.6 nM.

`[O-][Cl+3]([O-])([O-])[O-].c1ccc2c(c1)C1CC(c3ccoc3)(c3ccn[nH]3)C2c2cccc[n+]21` (single isomer, unassigned) [185(b), 6,11-ethano-12-(3-furyl)-12-(5-pyrazolyl]-6,11-dihydrobenzo[b]quinolizinium perchlorate] gave a Ki [1] of 6.29 nM and an IC50 [2] of 53 nM.

With `c1ccc2c(c1)CC1C3c4ccccc4C(c4cccc[n+]43)C21c1ccoc1` (centres unmarked) [6(d), 6.11[[2',3']-3'-(3-furyl)indanyl]6,11-dihydrobenzo[b]quinolizinium chloride] the Ki [1] was 1.2 nM and the IC50 ([2]; Mus musculus, Cortical neurone) was 244 nM.

For `c1ccc2c(c1)C1C3CCc4occc4C3(c3ccoc3)C2c2cccc[n+]21` (centres unmarked) [7(b), 6,11[[5',4']-4'-(3-furyl)-4',5',6',7'-tetrahydrobenzofuryl]6,11-dihydrobenzo[b]quinolizinium hexafluorophosphate], the Ki [1] was 1.38 nM and the IC50 ([2]; Mus musculus, Cortical neurone) was 7.6 nM.

`CCOC1(c2ccoc2)CC2c3ccccc3C1c1cccc[n+]12` (centres unmarked) [11(F), 6,11-ethano-12-(3-furyl)-12-ethoxy-6,11-dihydrobenzo[b]quinolizinium chloride] gave a Ki [1] of 73 nM and an IC50 ([2]; Mus musculus, Cortical neurone) of 2550 nM.

`CCOC1(c2ccoc2)CC2c3ccccc3C1c1cccc[n+]12` (centres unmarked) [11(g), 6,11-ethano-12-(3-furyl)-12-ethoxy-6,11-dihydrobenzo[b]quinolizinium chloride] was tested, and the Ki [1] was 18 nM and the IC50 [2] was 2000 nM.

Compound `c1ccc(C2(c3ccccc3)CC3c4ccccc4C2c2cccc[n+]23)cc1` (centres unmarked) [17(b), 6,11-ethano-12,12-diphenyl-6,11-dihydrobenzo[b]quinolizinium chloride] has a Ki [1] of 8.18 nM and an IC50 [2] of 197 nM.

In the case of `CC12CC(c3ccccc3)(c3ccccc3)C(c3ccccc31)c1cccc[n+]12` (centres unmarked) [19(b), 6,11-ethano-12,12-diphenyl-6-methyl-6,11-dihydro-benzo[b]quinolizinium. Chloride], the Ki [1] is reported as 6.8 nM and the IC50 ([2]; Mus musculus, Cortical neurone) is reported as 102 nM.

For `CC12CC(c3cccs3)(c3cccs3)C(c3ccccc31)c1cccc[n+]12` (centres unmarked) [47(d), 6,11-ethano-12,12-di(2-thienyl)-6-methyl-6,11-dihydrobenzo[b]quinoliziniumchloride], the Ki [1] was 2.11 nM and the IC50 ([2]; Mus musculus, Cortical neurone) was 40 nM.

With `c1csc(C2(c3cccs3)CC3c4ccccc4C2c2cccc[n+]23)c1` (centres unmarked) [48(b), 6,11-ethano-12,12-di(2-thienyl)-6,11-dihydrobenzo[b]quinolizinium chloride] the Ki [1] was 2.08 nM and the IC50 [2] was 23 nM.

`CC12CC(c3ccoc3)(c3ccoc3)C(c3ccccc31)c1cccc[n+]12` (centres unmarked) [50(b), 6,11ethano-12,12-di(3-furanyl)-6-methyl-6,11-dihydrobenzo[b]quinolizinilium chloride] gave a Ki [1] of 1.24 nM and an IC50 ([2]; Mus musculus, Cortical neurone) of 22 nM.

With `CC12c3ccccc3C(c3cccc[n+]31)C(c1ccccc1)(c1ccccc1)C21CC1` (centres unmarked) [51(c), 6,11-ethano-12,12-diphenyl-6-methyl-13,13-(spirocyclopropane)-6,11-dihydrobenzo[b]quinolizinium chloride] the Ki [1] was 22.3 nM and the IC50 ([2]; Mus musculus, Cortical neurone) was 83 nM.

Work on `c1ccc2c(c1)C1CC(c3ccsc3)(c3ccsc3)C2c2cccc[n+]21` (centres unmarked) [52(F), 6,11-ethanol 12,12-di(3-thienyl)-6,11-dihydrobenzo[b]quinolizinium chloride] yielded a Ki [1] of 1.82 nM and an IC50 ([2]; Mus musculus, Cortical neurone) of 39 nM.

Work on `c1coc(C2(c3ccco3)CC3c4ccccc4C2c2cccc[n+]23)c1` (centres unmarked) [57(d), 6,11-ethano-12,12-di(2-furanyl)-6,11-dihydrobenzo[b]quinolizinium chloride] yielded a Ki [1] of 1.9 nM and an IC50 [2] of 36 nM.

In the case of `c1ccc2c(c1)-c1ccccc1C21CC2c3ccccc3C1c1cccc[n+]12` (centres unmarked) [58(c), 6,11-ethano-12,12-spiro-9H-fluorenyl-6,11-dihydrobenzo[b]quinolizinium chloride], the “[3H]TCP percent inhibition @ 10 μm” value ([1]; inhibition of [3H]TCP binding at 10 μM) is reported as 32% and the IC50 ([2]; Mus musculus, Cortical neurone) is reported as over 1000 nM.

`c1ccc2c(c1)C1CC(c3ccn[nH]3)(c3ccn[nH]3)C2c2cccc[n+]21` (centres unmarked) [63(d), 6,11-ethano-12,12-di(5-pyrazolyl)-6,11-dihydrobenzo[b]quinoliziniumperchlorate] gave a Ki [1] of 10 nM and an IC50 [2] of 1630 nM.

For `c1ccc2c(c1)C1CC(c3ccn[nH]3)(c3ccn[nH]3)C2c2cccc[n+]21` (centres unmarked) [64(f), 11-ethano-12,12-di-[(pyrazol-5-yl)-6,11-dihydrobenzo[b]quinolizinium chloride], the Ki [1] was 13 nM and the IC50 [2] was 360 nM.

Compound `N#CC12CC(c3ccoc3)(c3ccoc3)C(c3ccccc31)c1cccc[n+]12` (centres unmarked) [171(b), 6,11-ethano-12,12-di(3-furyl)-6-cyano-6,11-dihydrobenzo[b]quinolizinium chloride] has a Ki [1] of 10.2 nM and an IC50 ([2]; Mus musculus, Cortical neurone) of 26.5 nM.

For `Oc1ccc2c(c1)C1c3cccc[n+]3C2CC1(c1cc[nH]n1)c1cc[nH]n1` (centres unmarked) [195(c), 12,12-di(pyrazol-3-yl)-9-hydroxy-6,11-ethano-6,11-dihydrobenzo[b]quinolizinium chloride], the Ki [1] was 12.6 nM and the IC50 ([2]; Mus musculus, Cortical neurone) was 30.8 nM.

`Fc1ccc2c(c1)C1c3cccc[n+]3C2CC1(c1ccoc1)c1ccoc1.[O-][Cl+3]([O-])([O-])[O-]` (centres unmarked) [196(c), 12,12-di(3-furyl)-9-fluoro-6,11-ethano-6,11-dihydrobenzo[b]quinolizinium perchlorate] was tested, and the Ki [1] was 4.11 nM and the IC50 ([2]; Mus musculus, Cortical neurone) was 80 nM.

In the case of `Oc1cccc2c1C1c3cccc[n+]3C2CC1(c1ccoc1)c1ccoc1.[Cl-]` (centres unmarked) [Example 68(c), 6,11-ethano-12,12-di(3-furyl)-10-hydroxy-6,11-dihydrobenzo[b]quinoliziniumchloride], the Ki [1] is reported as 1.5 nM and the “% Inhibition (± SEM) of infarct and penumbra region” value [3] is reported as 34 ± 14%.

`Oc1ccc2[n+](c1)C1CC(c3ccoc3)(c3ccoc3)C2c2ccccc21` (centres unmarked) [Example 191(f), 12,12-di(3-furyl)-3-hydroxy-6,11-ethano-6,11-dihydrobenzo[b]quinolizinium chloride] gave a Ki [1] of 1530 nM.

In the case of `Oc1ccc2c(c1)C1c3cccc[n+]3C2CC1(c1ccoc1)c1ccoc1` (centres unmarked) [Example 193, 12,12-di(3-furyl)-9-hydroxy-6,11-ethano-6,11-dihydrobenzo[b]quinolizinium chloride], the Ki [1] is reported as 2.13 nM and the IC50 ([2]; Mus musculus, Cortical neurone) is reported as 11.8 nM.

With `Oc1cccc2c1C1c3cccc[n+]3C2CC1(c1ccoc1)c1ccn[nH]1` (centres unmarked) [Example 200, 6,11-ethano-12-(3-furyl)-12-(pyrazol-5-yl)-10-hydroxy-6,11-dihydro-benzo[b]quinolizinium chloride] the Ki [1] was 11.5 nM.
